Results as given in PMC6277434, “Discovery of a potent HMG-CoA reductase degrader that eliminates statin-induced reductase accumulation and lowers cholesterol” (Nature Communications, 2018).
Where a chain is given by its changes, count along the chain named.

Experiments:
WT HMGCR = molecular target: T1, WT HMGCR (Cricetulus griseus, UniProt P00347); test: Degradation of transfected wild-type HMGCR (with Insig-1) in CHO-7 cells; format: cell-based; conditions: cells co-expressing wild-type HMGCR and Insig-1, 5 h
T1 construct: expressed in transfected cells; host or cells: CHO-7
T1 sequence (P00347 1-887): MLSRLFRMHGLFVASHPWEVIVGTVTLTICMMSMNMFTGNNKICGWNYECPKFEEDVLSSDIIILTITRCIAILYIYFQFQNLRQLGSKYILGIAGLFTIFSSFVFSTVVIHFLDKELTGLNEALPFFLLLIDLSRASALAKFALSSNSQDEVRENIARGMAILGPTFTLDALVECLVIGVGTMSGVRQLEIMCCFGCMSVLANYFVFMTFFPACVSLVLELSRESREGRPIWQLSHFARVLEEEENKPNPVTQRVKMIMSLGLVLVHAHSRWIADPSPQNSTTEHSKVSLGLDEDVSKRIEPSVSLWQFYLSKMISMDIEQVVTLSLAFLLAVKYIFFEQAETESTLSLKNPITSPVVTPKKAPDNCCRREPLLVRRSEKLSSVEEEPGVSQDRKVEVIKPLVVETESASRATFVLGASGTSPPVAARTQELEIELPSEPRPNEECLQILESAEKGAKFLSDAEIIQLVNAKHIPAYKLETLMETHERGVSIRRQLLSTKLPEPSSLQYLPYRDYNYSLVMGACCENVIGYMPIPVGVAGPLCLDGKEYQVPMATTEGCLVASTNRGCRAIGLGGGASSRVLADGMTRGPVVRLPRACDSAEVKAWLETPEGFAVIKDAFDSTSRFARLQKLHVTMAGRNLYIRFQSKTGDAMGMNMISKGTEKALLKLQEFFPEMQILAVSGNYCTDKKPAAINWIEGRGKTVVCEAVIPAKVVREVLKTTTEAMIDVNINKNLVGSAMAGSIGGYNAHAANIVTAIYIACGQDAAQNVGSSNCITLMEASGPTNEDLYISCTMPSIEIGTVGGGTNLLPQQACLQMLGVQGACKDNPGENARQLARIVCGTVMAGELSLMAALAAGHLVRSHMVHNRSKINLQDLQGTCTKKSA
T1 sequence (O15503 1-277 partner): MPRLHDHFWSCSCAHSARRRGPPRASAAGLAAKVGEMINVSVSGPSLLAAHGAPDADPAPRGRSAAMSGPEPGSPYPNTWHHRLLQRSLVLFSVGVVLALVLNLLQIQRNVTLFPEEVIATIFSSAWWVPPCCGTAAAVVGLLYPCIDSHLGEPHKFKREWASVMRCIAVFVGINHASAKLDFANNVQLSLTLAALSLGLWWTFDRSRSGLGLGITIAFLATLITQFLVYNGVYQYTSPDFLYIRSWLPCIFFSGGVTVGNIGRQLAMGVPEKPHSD
Method: HMGCR protein of DMSO-treated cells was defined as 100. […] Lysates were immunoprecipitated and pellets were probed for anti-ubiquitin (P4D1) and anti-HMGCR (A9). e CHO-7 cells were transfected with indicated plasmids and treated as in d. Lysates were immunoprecipitated with anti-Flag M2 beads, and pellets were probed for anti-ubiquitin (HA) and anti-HMGCR (Flag). f CHO-7 cells were transfected with indicated plasmids, then treated with Cmpd 81 for 5 h. […] Data are from three independent experiments and presented as mean ± SD. Source data are provided as a Source Data File.
Cells were harvested and homogenized in the RIPA buffer (50 mM Tris-HCl, pH 8.0, 150 mM NaCl, 2 mM MgCl2, 1.5% NP-40, 0.1% SDS, and 0.5% sodium deoxycholate) supplemented with protease cocktail inhibitor, 10 μM MG-132, 10 μg ml^−1 leupeptin and 1 mM phenylmethylsulfonyl fluoride. The protein concentrations of lysates were determined using BCA method (Beyotime). […] Western blot images were captured by Amersham Imager 600 (GE Healthcare), and integrated optical intensities of each band were quantified by Image-Pro Plus 6 software (Media Cybernetics). […]

K89R/K248R HMGCR = molecular target: T2, K89R/K248R HMGCR (Cricetulus griseus, UniProt P00347, K248R/K89R); test: Immunoblotting of overexpressed K89R/K248R HMGCR in Huh7 cells; format: cell-based; parameters: expressed in transfected cells; host or cells: Huh7 (A8); conditions: lovastatin
T2 sequence (P00347 1-887 K89R/K248R): T1 sequence (P00347 1-887) with K89R, K248R
Method: Cells were harvested and homogenized in the RIPA buffer (50 mM Tris-HCl, pH 8.0, 150 mM NaCl, 2 mM MgCl2, 1.5% NP-40, 0.1% SDS, and 0.5% sodium deoxycholate) supplemented with protease cocktail inhibitor, 10 μM MG-132, 10 μg ml^−1 leupeptin and 1 mM phenylmethylsulfonyl fluoride. The protein concentrations of lysates were determined using BCA method (Beyotime). Samples were mixed with the membrane protein solubilization buffer (62.5 mM Tris-HCl, pH 6.8, 15% SDS, 8 M urea, 10% glycerol, and 100 mM DTT) plus the 4× loading buffer (150 mM Tris-HCl, pH 6.8, 12% SDS, 30% glycerol, 6% 2-mercaptoethanol, and 0.02% bromophenol blue) and incubated for 30 min at 37 °C. Proteins were resolved by SDS-PAGE and transferred to nitrocellulose membranes (GE Healthcare). Immnoblots were blocked with 5% non-fat milk in TBS containing 0.075% Tween-20 (TBST) and probed with indicated antibodies overnight at 4 °C. After washing in TBST for five times, blots were incubated with HRP-conjugated secondary antibodies for 2 h at room temperature. Immunoreactivity was developed with Clarity Western ECL chemiluminescent substrates (170–5061, Bio-Rad). Western blot images were captured by Amersham Imager 600 (GE Healthcare), and integrated optical intensities of each band were quantified by Image-Pro Plus 6 software (Media Cybernetics). […]
RT-qPCR. Quantifications of the relative mRNA levels of indicated SREBP target […]

C=CCC(O)(CC=C)CCCC(C)C1CCC2C3C(O)C=C4C(C)(C)C(O)CCC4(C)C3CCC12C (centres unmarked) [Cmpd 81]
protein level of transfected wild-type HMGCR (WT HMGCR): a reduction of the protein level

CC[C@H](C)C(=O)O[C@H]1C[C@@H](C)C=C2C=C[C@H](C)[C@H](CC[C@@H]3C[C@@H](O)CC(=O)O3)[C@H]21 [Lovastatin, lovastatin]
effect on ubiquitination-resistant K89R/K248R HMGCR protein level (K89R/K248R HMGCR): did not induce the protein level further increase
